Consider 18 compounds from BindingDB's records for doi:10.1021/jm970615f (Parke-Davis Pharmaceutical Research, 1997).

The first assay concerns the target T1, Dimer of Gag-Pol polyprotein [489-587] (Human immunodeficiency virus 1, UniProt P12497).
T1 construct: 489-587
Put plainly: Protease Inhibition Assay.
Conditions: not given
As to the method:
For determination of IC50 values, HIV-1 protease was added to assay buffer containing inhibitor and the substrate (H-His-Lys-Ala-Arg-Val-Leu- (p-NO2) Phe-Glu-Ala-norleucine-Ser-NH2). The Leu- (p-NO2) Phe bond of the substrate was cleaved by the enzyme, and the substrate and products were separated by reversed-phase HPLC. Absorbance was measured at 220 nm, peak areas were determined, and percentage conversion to product was calculated.
Regarding `O=C1CC(COc2ccccc2)(c2ccccc2)OC(=O)C1SCc1ccccc1` (stereo not drawn) [5,6-Dihydro-4-hydroxy-6-phenoxymethyl-6-phenyl-3-[(phenylmethyl)thio]-2H-pyran-2-one], the IC50 (in general, the concentration needed to halve the response being measured) turned out to be 172 nM.

On to `O=C1CC(c2ccccc2)(c2ccncc2)OC(=O)C1SCCc1ccccc1` (stereo not drawn) [5,6-Dihydro-4-hydroxy-6-phenyl-3-[(2-phenylethyl)thio]-6-pyridin-4-yl-2H-pyran-2-one], for which the IC50 is 790 nM. In turn, `CC(C)c1ccc(C(C)C)c(SC2C(=O)CC(CCc3ccccc3)(c3ccccc3)OC2=O)c1` (stereo not drawn) [5,6-Dihydro-4-hydroxy-6-phenyl-6-(2-phenylethyl)-3-[(2,5-diisopropylphenyl)sulfanyl]-2H-pyran-2-one] yielded an IC50 of 14 nM. `NC(=O)CCCCC1(c2ccccc2)CC(=O)C(SCCc2ccccc2)C(=O)O1` (stereo not drawn) [5-{4-hydroxy-6-oxo-2-phenyl-5-[(2-phenylethyl)sulfanyl]-3,6-dihydro-2H-pyran-2-yl}pentanamide] had an IC50 of 338 nM. As to `Cc1ccc(C(C)C)c(SC2C(=O)C[C@](CCc3ccccc3)(c3ccccc3)OC2=O)c1` (stereo partly drawn) [(6R)-4-hydroxy-3-{[5-methyl-2-(propan-2-yl)phenyl]sulfanyl}-6-phenyl-6-(2-phenylethyl)-5,6-dihydro-2H-pyran-2-one], 130 nM corresponded to half-maximal inhibition (IC50).

On to `Cc1ccc(C(C)C)c(SC2C(=O)C[C@@](CCc3ccccc3)(c3ccccc3)OC2=O)c1` (stereo partly drawn) [(6S)-4-hydroxy-3-{[5-methyl-2-(propan-2-yl)phenyl]sulfanyl}-6-phenyl-6-(2-phenylethyl)-5,6-dihydro-2H-pyran-2-one], for which inhibition was half-maximal at 6 nM (IC50).

Staying with this assay, now noted: pH 4.7; 37 °C.
The compound `O=C1CC(c2ccccc2)OC(=O)C1SCCc1ccccc1` (stereo not drawn) [5,6-Dihydro-4-hydroxy-6-phenyl-3-[(2-phenylethyl)thio]-2H-pyran-2-one] yielded an IC50 of 2100 nM. As to `CCCC1(c2ccccc2)CC(=O)C(SCCc2ccccc2)C(=O)O1` (stereo not drawn) [5,6-Dihydro-4-hydroxy-6-phenyl-3-[(2-phenylethyl)thio]-6-propyl-2H-pyran-2-one], the IC50 turned out to be 5100 nM. Compound `O=C1CC(c2ccccc2)OC(=O)C1SCc1ccccc1` (stereo not drawn) [5,6-Dihydro-4-hydroxy-6-phenyl-3-[(phenylmethyl)thio]-2H-pyran-2-one] came in with an IC50 of 8900 nM. On to `CCCC1(c2ccccc2)CC(=O)C(SCc2ccccc2)C(=O)O1` (stereo not drawn) [5,6-Dihydro-4-hydroxy-6-phenyl-3-[(phenylmethyl)thio]-6-propyl-2H-pyran-2-one], for which the 50% inhibitory concentration (IC50) came out at 290 nM. For the compound `O=C1CC(CCc2ccccc2)(c2ccccc2)OC(=O)C1Sc1ccccc1` (stereo not drawn) [5,6-Dihydro-4-hydroxy-6-phenyl-6-(2-phenylethyl)-3-(phenylthio)-2H-pyran-2-one], half-maximal inhibition (IC50) was put at 130 nM.

As for `O=C1CC(CCc2ccccc2)(c2ccccc2)OC(=O)C1SCCc1ccccc1` (stereo not drawn) [5,6-Dihydro-4-hydroxy-6-phenyl-6-(2-phenylethyl)-3-[(2-phenylethyl)thio]-2H-pyran-2-one], the midpoint of inhibition, the IC50, lay at 51 nM. On the same count and under the same terms, next, `CCCCCCC1(c2ccccc2)CC(=O)C(SCCc2ccccc2)C(=O)O1` (stereo not drawn) [5,6-Dihydro-6-hexyl-4-hydroxy-6-phenyl-3-[(2-phenylethyl)thio]-2H-pyran-2-one]: 112 nM. Still for that read-out and setting: then `O=C(O)CCCCC1(c2ccccc2)CC(=O)C(SCCc2ccccc2)C(=O)O1` (stereo not drawn) [5-{4-hydroxy-6-oxo-2-phenyl-5-[(2-phenylethyl)sulfanyl]-3,6-dihydro-2H-pyran-2-yl}pentanoic acid], with 5 nM.

On to `O=C1CC(CC2CCCCC2)(c2ccccc2)OC(=O)C1SCc1ccccc1` (stereo not drawn) [6-(Cyclohexylmethyl)-5,6-dihydro-4-hydroxy-6-phenyl-3-[(phenylmethyl)thio]-2H-pyran-2-one], for which the IC50 is 137 nM. In turn, `O=C1CC(CC2CCCC2)(c2ccccc2)OC(=O)C1SCc1ccccc1` (stereo not drawn) [6-(Cyclopentylmethyl)-5,6-dihydro-4-hydroxy-6-phenyl-3-[(phenylmethyl)thio]-2H-pyran-2-one] yielded an IC50 of 88 nM. Compound `O=C1CC(CC2CCCC2)(c2ccccc2)OC(=O)C1SCCc1ccccc1` (stereo not drawn) [6-(cyclopentylmethyl)-4-hydroxy-6-phenyl-3-[(2-phenylethyl)sulfanyl]-5,6-dihydro-2H-pyran-2-one] had an IC50 of 510 nM. The same measure, in the same setting: next, `CCCCC1(c2ccccc2)CC(=O)C(SCCc2ccccc2)C(=O)O1` (stereo not drawn) [6-Butyl-5,6-dihydro-4-hydroxy-6-phenyl-3-[(2-phenylethyl)thio]-2H-pyran-2-one]: 400 nM.
